Results: the CheMixHub viscosity set

Experiment: xn = mol fraction of the nth substance listed

Cc1ccccc1O + Cc1ccccc1
308.15 K, 101 kPa
Details	viscosity [mPa·s]
x1 = 0.1491	0.6
x1 = 0.224	0.7051
x1 = 0.307	0.8217
x1 = 0.397	0.9904
x1 = 0.5325	1.332
x1 = 0.6095	1.604
x1 = 0.6968	2.034
x1 = 0.7755	2.544
x1 = 0.87	3.369

CCCCCOC(C)=O + Cc1ccccc1O
Details	viscosity [mPa·s]
298.15 K, 101 kPa, x2 = 0.5	1.165

CC1CCC(C)O1 (stereo unspecified) + ClC1CCCCC1
viscosity [mPa·s], 101.3 kPa
Details	x1 = 0.0973	x1 = 0.2014	x1 = 0.3026	x1 = 0.3986	x1 = 0.4986	x1 = 0.6031	x1 = 0.7002	x1 = 0.7977	x1 = 0.8986
298.15 K	1.36	1.179	1.033	0.9191	0.818	0.7279	0.6563	0.5937	0.5366
313.15 K	1.073	0.9412	0.8337	0.7486	0.6724	0.6054	0.551	0.499	0.452

CCCCCOC(C)=O + ClC(Cl)(Cl)Cl
303.15 K, 101.3 kPa
Details	viscosity [mPa·s]
x1 = 0.0945	0.8029
x1 = 0.1925	0.7788
x1 = 0.3042	0.7586
x1 = 0.4017	0.7482
x1 = 0.5021	0.7413
x1 = 0.6003	0.7378
x1 = 0.7016	0.7385
x1 = 0.808	0.7427
x1 = 0.9075	0.746

CCCCCOC(C)=O + ClC(Cl)C(Cl)Cl
303.15 K, 101.3 kPa
Details	viscosity [mPa·s]
x1 = 0.1051	1.473
x1 = 0.2031	1.446
x1 = 0.3044	1.401
x1 = 0.4008	1.34
x1 = 0.5038	1.256
x1 = 0.598	1.165
x1 = 0.7002	1.061
x1 = 0.7935	0.9582
x1 = 0.8927	0.8565
